Laboratory results from patent US12605350B2, “Composition for preventing, ameliorating, or treating disease caused by nitration of tyrosine in proteins comprising tyrosine as effective component” (INDUSTRY-ACADEMIC COOPERATION FOUNDATION GYEONGSANG …, priority 2020, dated 2026).
“Also recorded” adds a separate entry of the source.

What was measured:
[1] = target: T1, glutamine synthetase (GS) (Mus musculus, UniProt P15105); assay: in vitro GS activity of PFC tissue lysate treated with nitrogen peroxide (PN) and tyrosine; format: biochemical; details: PFC tissue lysate (10 μg), 0.0031 to 0.45 mg/ml tyrosine, nitrogen peroxide (PN) 10 times the tissue lysate
T1 construct: PFC sample was weighed first, and, after lysis of the tissues by using Bullet homogenizer, subjected to centrifuge; from tissue; host or cells: mouse prefrontal cortex (PFC) lysate
Description: (§1) Each of the blood and PFC sample was obtained from a mouse anesthetized with CO2 gas. Specifically, mouse blood was collected between 9 AM and 11 AM and stored in a K3EDTA-coated vacuum container. Plasma was obtained by centrifuge for 10 minutes at 4° C., 500×g. PFC sample was weighed first, and, after lysis of the tissues by using Bullet homogenizer, subjected to centrifuge for 20 minutes at 4° C., 12,000 rpm. Thus-obtained plasma and tissue lysate were kept at −80° C. until use.
(§2) 10 μg of the lysate were admixed with […] of GS assay buffer solution (50 mM imidazole-HCl, pH 6.8, 50 mM L-glutamine, 25 mM hydroxylamine, 25 mM sodium arsenate, 2 mM MnCl2 and 0.16 mM ADP), followed by incubation for 1 hour at 37° C.
(§3) After the mixing, the reaction was terminated by adding 50 μl of stop buffer solution (90 mM FeCl3, 1.8 N HCl and 1.45% trichloroacetic acid), and then γ-glutamylhydroxamate synthesized from a reaction between glutamine and hydroxylamine as catalyzed by GS was measured at 560 nm using a microplate reader.
Moreover, after PFC (prefrontal cortex) tissue lysate (10 μg) was added and mixed with 0.0031 to 0.45 mg/ml tyrosine, incubated on ice for 10 minutes, and added with nitrogen peroxide (PN), in an amount that is 10 times the tissue lysate, followed by incubation for 10 minutes, in vitro GS activity was examined.

[2] = test system: glutamine synthetase (GS); assay: GS activity, GS expression and Tyr-nitrated GS in PFC of chronic immobilization stress mice; format: in vivo, mouse
Description: as §1, §2, §3
By using Western blot (WB) and immunoprecipitation (IP)-WB, level of GS and level of Tyr-nitrated GS were measured, respectively. […]
The animal models were divided into two groups (i.e., normal group and stress group). […] Change in bodyweight and food intake amount were measured every other day. […]

[3] = test system: mouse PFC protein; assay: inhibitory effect on in vitro nitration of mouse PFC protein induced by ONOO−; format: biochemical; details: mouse PFC protein treated with ONOO−
Text: By treating mouse PFC protein with ONOO^−, protein nitration was induced and the inhibitory effect on nitration by tyrosine was examined.

[4] = test system: high-fat diet mouse model of type 2 diabetes; assay: fat accumulation in tissues, high-fat diet model; format: in vivo
Description: (§4) Twenty-seven C57BL/6 male mice (3-week old) were acclimated to the breeding condition for 1 week. […] Blood glucose was measured every week.
Mouse was anesthetized with avertin, and blood was collected from a heart. After the reaction with EDTA in a vacucontainer, the blood was centrifuged for 15 minutes at 1,500×g, 4° C. to separate plasma. According to heart perfusion with PBS and 4% paraformaldehyde (PFA), tissue fixation was carried out. Then, each tissue was harvested and stored in PFA.

[5] = test system: mouse model of chronic immobilization stress; assay: object location recognition test (OLT); format: in vivo; details: D-Tyr-containing diet (181 mg D-Tyr/kg AIN-93G), chronic stress 14 days
Description: Twenty-eight C57BL/6 male mice (7-week old) were divided into two groups, each group provided for 1 week with a normal diet or D-tyrosine (D-Tyr)-containing diet (181 mg D-Tyr/kg AIN-93G).
Once the animals become 8-week old, they were applied with chronic immobilization stress (CIS) under light condition of 200 lux, 2 hours per day for 2 weeks. The animals were divided into the control group (CTL), D-Tyr diet control group (CTL+D-Tyr), chronic stress group (STR), and D-Tyr diet chronic stress group (STR+D-Tyr), in which each group consists of 7 animals.
Upon the completion of the CIS for 2 weeks, a cognitive function test was carried out. To compare the cognitive function between the group provided with D-Tyr-containing diet over the entire test period including habituation period and normal feed diet group, an object recognition test (ORT) and an object location recognition test (OLT) for testing long-term memory skills were carried out.
OLT: 24 Hours after carrying out ORT, location of a familiar object was changed, and the animal was allowed to explore for 5 minutes. According to the same method as the aforementioned object recognition function index (DI), ratio of time spent for exploring an object with changed location compared to the entire time for exploring an object was calculated. Accordingly, object location recognition function index was obtained.

[6] = test system: mouse model of epileptic seizure which has been induced to have seizure by kainic acid; assay: epileptic seizure induced by kainic acid: seizure level, bodyweight, survival
Description: Kainic acid (KA, Abcam) was dissolved in physiological saline in hot water bath to prepare 9 mg/ml kainic acid solution. After intraperitoneal injection of kainic acid (30 mg/kg), severity level and symptoms of seizure were recorded for 2 hours. Severity level of seizure was decided based on the criteria given in the following Table 2, and also the bodyweight was measured before and 24 hours after the injection of kainic acid, and then the results are compared to each other.

[7] = test system: high-fat diet mouse model of type 2 diabetes; assay: glucose tolerance test; format: in vivo; details: HFD+L-Tyr vs HFD; 16 hours fasting, glucose 2 g per 1 kg i.p., 30-120 minutes
Description: as §4
D-glucose was dissolved in 1×PBS to prepare 40% D-glucose solution. Blood glucose of a mouse, which has been subjected to fasting for 16 hours, was measured, and, for having intraperitoneal injection of glucose in an amount of 2 g per 1 kg bodyweight, the animal was intraperitoneally injected with the glucose solution according to the following Formula (1). Glucose injection amount(μl)=Bodyweight(g)×5 Formula (1)
For example, for a mouse with bodyweight of 45 g, 225 μl of 40% glucose solution were injected. After the intraperitoneal injection of glucose solution, blood glucose was measured at time points of 30, 60, 90 and 120 minutes.

[8] = HFD animal model, L-tyrosine diet (181 mg/kg)

T1 sequence (P15105 2-373 limits assumed): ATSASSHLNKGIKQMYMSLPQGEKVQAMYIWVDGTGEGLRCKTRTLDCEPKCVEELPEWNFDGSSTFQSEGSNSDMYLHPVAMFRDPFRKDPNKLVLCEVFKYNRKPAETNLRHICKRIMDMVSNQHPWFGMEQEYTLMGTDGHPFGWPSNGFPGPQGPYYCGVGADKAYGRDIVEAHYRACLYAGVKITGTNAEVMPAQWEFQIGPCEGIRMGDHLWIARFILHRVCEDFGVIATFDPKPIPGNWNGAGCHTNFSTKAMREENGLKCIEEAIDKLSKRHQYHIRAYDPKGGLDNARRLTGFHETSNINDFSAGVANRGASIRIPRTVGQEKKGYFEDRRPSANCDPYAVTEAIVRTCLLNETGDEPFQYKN

Row | SMILES | in vitro GS activity [1] | GS activity in PFC ([2]; stress group, tyrosine diet (181.2 mg/kg) compared to normal diet) | amount of N-Tyr (nitrated tyrosine) in GS ([2]; tyrosine-diet group compared to stress group with normal diet, PFC) | inhibitory effect on nitration of proteins [3] | amount of fat tissues around kidney [4, 8] | fat accumulation in liver [4, 8] | tissue weight (fat accumulation in tissues) ([4]; HFD+Tyr compared to HFD) | cognitive function according to OTL (object location recognition function index) [5] | severity of seizure ([6]; ICR mouse, L-Tyr diet 181, 543 or 905 mg/kg for 1 week, kainic acid 30 mg/kg i.p., 2 hours) | mouse death ([6]; depending on intake amount of tyrosine, kainic acid 30 mg/kg i.p.) | survival ([6]; diet with feeds containing tyrosine 900 mg/kg (actual intake amount)) | blood glucose, glucose tolerance test [7]
1 | N[C@@H](Cc1ccc(O)cc1)C(=O)O [tyrosine] | statistically significant increase in GS activity; also recorded: higher GS activity is obtained in accordance with an increase in the tyrosine concentration | statistically significant increase in the GS activity | statistically significant decrease in the amount of N-Tyr | nitration of the proteins is inhibited in tyrosine concentration dependent manner | reduced to a statistically different level | fat accumulation is reduced all over the liver | statistically significant decrease in tissue weight | maintained at the level of the control group | severity of seizure is gradually reduced depending on tyrosine amount | improvement in mouse death was also observed depending on intake amount of tyrosine | all of the mice have survived | –
2 | N[C@@H](Cc1ccc(O)cc1)C(=O)O [L-tyrosine] | – | – | – | – | – | – | – | – | – | – | – | statistically significant decrease in blood glucose amount
